According to paper PMC9322082, “Improvement in Solubility–Permeability Interplay of Psoralens from Brosimum gaudichaudii Plant Extract upon Complexation with Hydroxypropyl-β-cyclodextrin” (Molecules, 2022):
Values after ≈ are worked out from the molar mass of the structure shown. Values joined by “and” are separate entries in the source; they are usually repeats but may differ in a detail not shown here. Equal entries are not always repeated. Where two headings read alike, the source gives them in different places.

Key:
rat jejunum [1] = assay: Ex vivo rat jejunal permeability (MTS-Snapwell system, A–B); assay type: in vitro ADME
Experimental: (§1) Study protocol for female Wistar rats (12–14 weeks old) was approved by the Ethics Committee on Animal Use (#066/15) at the Federal University of Goiás, Goiás, Brazil. One week before starting the experiment, all animals were acclimatized at controlled conditions with regulated access to a standard food (22 ± 2 °C, 12-h light/dark cycle). After this, they fasted for 12 h with free access to water. All animals (body weight = 215 ± 12 g) were then anesthetized using a mixture of ketamine/xylazine (90.0/7.5 mg/kg). Rat jejunum was removed and immediately placed into an ice-cold KRB solution. The jejunum (20 mm) seromuscular layer was carefully stripped off from the membrane and mounted in the MTS-Snapwell system. Next, unidirectional drug transport was measured from the apical to basolateral side (A–B).
(§2) Sample aliquots (400 µL) were placed in the donor compartment (apical side).
(§3) Drug transport was measured by collecting samples (500 µL) from the receiver chamber (basolateral side) at 0, 20, 30, 40, 60, 90, and 120 min. Receiver samples were replaced with equal volume of fresh KRB solution (37 °C). The system was maintained on a plate shaker (60 rpm) inside a humidified incubator (37 ± 0.5 °C) in a controlled atmosphere (95% O2, and 5% CO2), before and during the transport experiment. Samples were analyzed by the HPLC-DAD validated method.
(§4) The change in donor and receiver concentrations was taken into consideration when the apparent permeability coefficient (Papp) was calculated using to the following equation:Papp = dQ/dt(1/CD A)(3) where dQ/dt is the appearance rate of the drug in the receiver compartment, CD is the concentration of the drug in the donor chamber at each sample interval, and A is the surface area (0.1 cm^2) of the tissue segment. The initial concentration of the drug in the donor compartment was determined experimentally, and donor concentrations at each time point were obtained by the calculation of the mass balance.
(§5) Integrity of intestinal tissue segments mounted in the MTS-Snapwell system was assessed by measuring the transepithelial electrical resistance (TEER) using the KRB solution at 37 °C as the conducting medium. Viable intestinal segments (>30 Ω·cm^2) were mounted on the permeation apparatus and subjected to a preincubation period (30 min) under a controlled atmosphere (95% O2 and 5% CO2) before starting the experiments.

[2] = as above; assay type: in vitro ADME; conditions: female, Wistar, rat
Experimental: as §1, §2, §3, §4, §5

[3] = as above; assay type: in vitro ADME; conditions: female, Wistar, pH 7.4, pure compound, KRB, without stirring (0 rpm)
[4] = Preliminary in vivo studies in rats (plasma AUC); conditions: rat, n = 3
[5] = Phase solubility studies with HP-β-CD in KRB buffer; assay type: physicochemical; conditions: for solubility at 7 d: KRB buffer, 37 °C, thermodynamic from solid
Experimental: Phase solubility studies were performed in KRB buffer solutions (pH 7.4), as described by Higuchi and Connors. […] Samples were centrifuged (4000 rpm, 5 min) and filtered (Nylon filter; 0.45 µm) prior to the psoralens content analysis by the HPLC-DAD validated method.
The complexation efficiency (CE) was determined by using the slope of the linear phase solubility diagram as follows:CE = slope/(1 − slope)(2)

rat jejunum [6] = test system: rat jejunum; design: method as in PMID 32942105; conditions: 0.58 mM; BCS low/high permeability class boundary marker; n = 41; cited from earlier work
jejunal tissue = assay: Viability of intestinal tissue segments by TEER; assay type: in vitro ADME, rat
Experimental: The effects of HP-β-CD on the viability of intestinal tissue segments mounted in the MTS-Snapwell system was evaluated during incubation time (120 min) at 37 °C. For this purpose, TEER values in the presence and absence of 20% (w/w) HP-β-CD were compared.
as §5

[7] = pH 7.4, marker in EBGT plant extract, HP-β-CD 70 mM
[8] = pH 7.4, marker in EBGT plant extract, KRB solution without HP-β-CD
[9] = pH 7.4, pure compound, HP-β-CD 70 mM
[10] = pH 7.4, pure compound, KRB solution without HP-β-CD, stirring 60 rpm, 120 min

COc1c2ccoc2cc2oc(=O)ccc12 [5-MOP, 5-methoxypsoralen]
permeability rate decrease after adding HP-β-CD (rat jejunum [1]; EBGT markers): 4 fold
permeability rate decrease after adding HP-β-CD (rat jejunum [1]; pure standards): 6 fold
Papp at 120 min [2, 7]: 3.04 ± 1.19 ×10⁻⁶ cm/s
Papp at 120 min [2, 8]: 10.7 ± 1.73 ×10⁻⁶ cm/s
Papp at 120 min [2, 9]: 2.05 ± 0.81 ×10⁻⁶ cm/s
Papp at 120 min [2, 10]: 11.2 ± 3.28 ×10⁻⁶ cm/s
Papp at 120 min [3]: 7.8 ± 1.91 ×10⁻⁶ cm/s
AUC ([4]; EBGT in HP-β-CD 70 mM solution, dose 0.12 mg/kg): 377 ng·h/mL
AUC ([4]; EBGT uncomplexed, dose 1.5 g/kg): 516 ng·h/mL
Kc fold lower in EBGT compared to pure compound ([5]; EBGT marker vs pure compound): ~1.8 fold
solubility at 7 d ([5]; pH 7.4, aqueous buffer, marker in EBGT plant extract (9.0 mg/mL), KRB pH 7.4, 37 °C, absence of HP-β-CD, read-out: intrinsic solubility (S0) in EBGT): 38 ± 2 µM (≈ 8.22 µg/mL)
solubility at 7 d ([5]; pH 7.4, aqueous buffer, pure compound, KRB buffer pH 7.4, 37 °C, absence of HP-β-CD, read-out: intrinsic solubility (S0)): 32 ± 1 µM (≈ 6.92 µg/mL)
solubility at 7 d ([5]; pH 7.4, aqueous with cosolvent or surfactant or cyclodextrin, aqueous solubility with 70 mM HP-β-CD in plant extract, marker in EBGT, 70 mM HP-β-CD, KRB pH 7.4, 37 °C): 720 ± 40 µM (≈ 156 µg/mL)
solubility at 7 d ([5]; pH 7.4, aqueous with cosolvent or surfactant or cyclodextrin, aqueous solubility with 70 mM HP-β-CD, pure compound, 70 mM HP-β-CD, KRB pH 7.4, 37 °C): 930 ± 7 µM (≈ 201 µg/mL)
complexation efficiency (CE) with HP-β-CD in EBGT ([5]; marker in EBGT plant extract): 0.010 ± 0.001
intrinsic solubility (S0) in EBGT ([5]; marker in EBGT plant extract (9.0 mg/mL), KRB pH 7.4, 37 °C, absence of HP-β-CD): 40 ± 2 µM
Kc (stability constant) with HP-β-CD in EBGT ([5]; marker in EBGT plant extract, KRB pH 7.4, 37 °C): 251.2 ± 1.4 M⁻¹
solubility increase ([5]; marker in EBGT, 70 mM HP-β-CD vs no HP-β-CD): 18 fold
complexation efficiency (CE) with HP-β-CD ([5]; pure compound): 0.014 ± 0.001
phase solubility diagram profile (Higuchi-Connors) ([5]; pure compound with HP-β-CD, indicates 1:1 complex): AL type
intrinsic solubility (S0) ([5]; pure compound, KRB buffer pH 7.4, 37 °C, absence of HP-β-CD): 30 ± 1 µM
Kc (stability constant) of HP-β-CD inclusion complex ([5]; pure compound, KRB pH 7.4, 37 °C, 1:1 complex): 449.9 ± 16.6 M⁻¹ and < 500 M⁻¹

O=c1ccc2cc3ccoc3cc2o1 [PSO, Psoralen]
permeability rate decrease after adding HP-β-CD (rat jejunum [1]; EBGT markers): 4 fold
permeability rate decrease after adding HP-β-CD (rat jejunum [1]; pure standards): 6 fold
Papp at 120 min [2, 7]: 3.86 ± 1.81 ×10⁻⁶ cm/s
Papp at 120 min [2, 8]: 17.6 ± 1.35 ×10⁻⁶ cm/s
Papp at 120 min [2, 9]: 3.82 ± 0.62 ×10⁻⁶ cm/s
Papp at 120 min [2, 10]: 21.4 ± 3.81 ×10⁻⁶ cm/s
Papp at 120 min [3]: 20.5 ± 2.82 ×10⁻⁶ cm/s

COCCc1ccc(OCC(O)CNC(C)C)cc1 (centres unmarked) [metoprolol]
Papp (rat jejunum [6]): 6.21 ± 2.63 × 10^−6 cm/s

CC(O)COC[C@H]1O[C@@H]2O[C@H]3[C@H](O)[C@@H](O)[C@@H](O[C@H]4[C@H](O)[C@@H](O)[C@@H](O[C@H]5[C@H](O)[C@@H](O)[C@@H](O[C@H]6[C@H](O)[C@@H](O)[C@@H](O[C@H]7[C@H](O)[C@@H](O)[C@@H](O[C@H]8[C@H](O)[C@@H](O)[C@@H](O[C@H]1[C@H](O)[C@H]2O)O[C@@H]8COCC(C)O)O[C@@H]7COCC(C)O)O[C@@H]6COCC(C)O)O[C@@H]5COCC(C)O)O[C@@H]4COCC(C)O)O[C@@H]3COCC(C)O (stereo partly drawn) [HP-β-CD, 2-hydroxypropyl-β-cyclodextrin]
TEER after incubation (jejunal tissue; 20% (w/w) HP-β-CD, 120 min, 37 °C, n = 16, control KRB 32 ± 9, p = 0.99): 29 ± 7 Ω·cm^2
effect on viability of jejunal tissue (jejunal tissue; HP-β-CD at high concentration (20% w/w)): does not affect the viability of jejunal tissue
